Data published in ChEMBL document CHEMBL5329222, “Discovery of novel tubulin CBSI (R)-9k from the indanone scaffold for the treatment of colorectal cancer” (RSC Med Chem, 2023).
The source made the active and inactive calls. The calls are words filed in the database; no cut-off is given here.

Experiments:
HeLa [1] = experiment: Antiproliferative activity against human HeLa cells assessed as inhibition of cell growth incubated for 1.5 hrs by CCK-8 assay; type: functional, cell-based
HCT-116 [2] = experiment: Antiproliferative activity against human HCT-116 cells assessed as inhibition of cell growth incubated for 1.5 hrs by CCK-8 assay; type: functional, cell-based; settings: HCT-116, 1.5 h
A2780 [3] = experiment: Antiproliferative activity against human A2780 cells assessed as inhibition of cell growth incubated for 1.5 hrs by CCK-8 assay; type: functional, cell-based
SW480 = experiment: Growth inhibition of human SW480 cells incubated for 1.5 hrs by MTT assay; type: functional, cell-based
[4] = Cytotoxicity against human HUVEC cells assessed as inhibition of cell growth incubated 1.5 hrs by MTT assay; type: toxicity, cell-based
[5] = Cytotoxicity against HEK293 cells assessed as inhibition of cell growth incubated 1.5 hrs by MTT assay; type: toxicity, cell-based; settings: human
A2780 [6] = experiment: Growth inhibition of human A2780 cells incubated for 1.5 hrs by MTT assay; type: functional, cell-based; settings: A2780, 1.5 h
CT26 = experiment: Growth inhibition of CT26 cells incubated for 1.5 hrs by MTT assay; type: functional, cell-based; settings: Mus musculus, CT26, 1.5 h
Tubulin = experiment: Inhibition of tubulin (unknown origin) polymerization; type: protein-complex assay, Homo sapiens
HeLa [7] = experiment: Potency index, ratio of 5-fluorouracil IC50 to test compound IC50 for antiproliferative activity against human HeLa cells assessed as inhibition of cell growth; type: functional
HCT-116 [8] = experiment: Potency index, ratio of 5-fluorouracil IC50 to test compound IC50 for antiproliferative activity against human HCT-116 cells assessed as inhibition of cell growth; type: functional
HCT-116 [9] = experiment: Growth inhibition of human HCT-116 cells incubated for 1.5 hrs by MTT assay; type: functional, cell-based; settings: HCT-116, 1.5 h
HeLa [10] = experiment: Growth inhibition of human HeLa cells incubated for 1.5 hrs by MTT assay; type: functional, cell-based
A2780 [11] = experiment: Potency index, ratio of 5-fluorouracil IC50 to test compound IC50 for antiproliferative activity against human A2780 cells assessed as inhibition of cell growth; type: functional
HCT-116 [12] = experiment: Inhibition of colony formation in human HCT-116 cells at 0.1 uM incubated for 48 hrs by crystal violet staining based analysis; type: functional
[13] = target: Tubulin beta (Homo sapiens) (UniProt P68371+Q9H4B7+Q13509+P04350+Q3ZCM7+P07437+Q13885+Q9BVA1+Q9BUF5+A6NNZ2); experiment: Binding affinity to beta-tubulin colchicine binding site in human HCT-116 cells assessed as inhibition of EBI-beta-tubulin adduct band formation at 5 to 25 uM preincubated for 2 hrs followed by EBI addition measured after 1.5 hrs by EBI competition based Western blotting analysis; type: cell-based; settings: dose 5-25 µM, time 3.5 hrs
MDA-MB-231 = experiment: Antiproliferative activity against human MDA-MB-231 cells assessed as inhibition of cell growth incubated for 24 hrs by MTT assay; type: functional, cell-based; settings: MDA-MB-231, 24 h
Estrogen receptor beta = Estrogen receptor beta (Homo sapiens, UniProt Q92731); experiment: Binding affinity to human recombinant ERbeta incubated for 20 mins
Estrogen receptor beta, sequence (Q92731 whole entry): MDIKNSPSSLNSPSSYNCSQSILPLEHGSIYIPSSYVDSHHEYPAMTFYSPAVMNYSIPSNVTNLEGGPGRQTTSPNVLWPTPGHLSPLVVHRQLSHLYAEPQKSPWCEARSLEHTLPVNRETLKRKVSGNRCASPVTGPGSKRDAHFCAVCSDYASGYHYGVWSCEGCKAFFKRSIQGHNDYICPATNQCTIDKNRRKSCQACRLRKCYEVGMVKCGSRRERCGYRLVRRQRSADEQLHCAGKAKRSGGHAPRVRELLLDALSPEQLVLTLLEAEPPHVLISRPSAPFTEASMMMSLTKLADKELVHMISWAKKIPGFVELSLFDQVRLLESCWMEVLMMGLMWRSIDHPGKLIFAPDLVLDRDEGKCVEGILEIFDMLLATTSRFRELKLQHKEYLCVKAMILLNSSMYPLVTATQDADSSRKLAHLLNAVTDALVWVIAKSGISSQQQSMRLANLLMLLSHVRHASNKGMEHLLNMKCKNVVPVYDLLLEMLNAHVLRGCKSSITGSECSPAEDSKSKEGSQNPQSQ

MCF7 = experiment: Antiproliferative activity against human MCF7 cells assessed as inhibition of cell growth incubated for 24 hrs by MTT assay; type: functional, cell-based; settings: MCF7, 24 h

COc1ccc(C2CC(=O)c3cc(OC)c(OC)c(OC)c32)cc1Br (stereo not drawn)
IC50 (HeLa [1]): 3.52 µM | IC50 (HCT-116 [2]): 0.8 µM | IC50 (A2780 [3]): 4.87 µM

COc1cc2c(c(OC)c1OC)C(c1ccc(SC)cc1)CC2=O (stereo not drawn)
IC50 (HeLa [1]): 2.27 µM | IC50 (HCT-116 [2]): 1.82 µM | IC50 (A2780 [3]): 2.91 µM

COc1ccc(C2CC(=O)c3cc(OC)c(OC)c(OC)c32)cc1I (stereo not drawn)
IC50 (HeLa [1]): 7.22 µM | IC50 (HCT-116 [2]): 8.5 µM | IC50 (A2780 [3]): 7.58 µM

COc1ccc(C2CC(=O)c3cc(OC)c(OC)c(OC)c32)cc1F (stereo not drawn)
IC50 (HeLa [1]): 0.6 µM | IC50 (HCT-116 [2]): 0.25 µM | IC50 (A2780 [3]): 0.7 µM

CCOc1ccc(C2CC(=O)c3cc(OC)c(OC)c(OC)c32)cc1 (stereo not drawn)
IC50 (HeLa [1]): 0.48 µM | IC50 (HCT-116 [2]): 0.3 µM | IC50 (A2780 [3]): 0.71 µM

COc1cc(C2CC(=O)c3cc(OC)c(OC)c(OC)c32)cc(OC)c1OC (stereo not drawn)
IC50 (HeLa [1]): > 100 µM | IC50 (HCT-116 [2]): > 100 µM | IC50 (A2780 [3]): > 100 µM

O=c1[nH]cc(F)c(=O)[nH]1 [FLUOROURACIL]
IC50 (SW480): 37.5 µM | IC50 (HeLa [1]): 15.7 µM | IC50 at 1.5 h [4]: 0.43 µM | IC50 at 1.5 h [5]: 5.11 µM | IC50 (A2780 [6]): 32.1 µM | IC50 (CT26): 59.2 µM | IC50 (A2780 [3]): 36.3 µM

COc1ccc(C2CC(=O)c3cc(OC)c(OC)c(OC)c32)cc1 (stereo not drawn)
IC50 (HeLa [1]): 0.43 µM | IC50 (HCT-116 [2]): 1.88 µM | IC50 (A2780 [3]): 0.69 µM

COc1ccc(C2CC(=O)c3cc(OC)c(OC)c(OC)c32)cc1Cl (stereo not drawn)
IC50 (HeLa [1]): 2.13 µM | IC50 (HCT-116 [2]): 0.31 µM | IC50 (A2780 [3]): 2.52 µM

CCOc1ccc(C2CC(=O)c3cc(OC)c(OC)c(OC)c32)cc1Br (stereo not drawn)
IC50 (HeLa [1]): 4.99 µM | IC50 (HCT-116 [2]): 8.99 µM | IC50 (A2780 [3]): 4.11 µM

CCOc1ccc(C2CC(=O)c3cc(OC)c(OC)c(OC)c32)cc1Cl (stereo not drawn)
IC50 (HeLa [1]): 2.08 µM | IC50 (HCT-116 [2]): 1.86 µM | IC50 (A2780 [3]): 2.33 µM

COc1ccc([C@H]2NC(=O)c3cc(OC)c(OC)c(OC)c32)cc1
IC50 (Tubulin): 52 µM

CCOc1ccc(C2CC(=O)c3cc(OC)c(OC)c(OC)c32)cc1F (stereo not drawn)
IC50 (SW480): 3.6 µM | Ratio IC50 (HeLa [7]): 42 | Ratio IC50 (HCT-116 [8]): 54 | IC50 (HeLa [1]): 0.37 µM | IC50 (HCT-116 [9]): 0.35 µM | IC50 (HeLa [10]): 0.66 µM | IC50 (A2780 [6]): 1.81 µM | Ratio IC50 (A2780 [11]): 71 | IC50 (CT26): 5.24 µM | IC50 (HCT-116 [2]): 0.24 µM | IC50 (A2780 [3]): 0.51 µM

COc1cc2c(c(OC)c1OC)-c1ccc(OC)c(=O)cc1[C@@H](NC(C)=O)CC2 [COLCHICINE]
IC50 (HeLa [1]): 0.026 µM | IC50 at 1.5 h [4]: 9.62 µM | inhibition (HCT-116 [12]): Active | IC50 at 1.5 h [5]: 0.17 µM | IC50 (HCT-116 [2]): 0.035 µM | IC50 (A2780 [3]): 0.043 µM

COc1ccc(C2CC(=O)c3cc(OC)c(OC)c(OC)c32)cc1[N+](=O)[O-] (stereo not drawn)
IC50 (HeLa [1]): 2.22 µM | IC50 (HCT-116 [2]): 1.93 µM | IC50 (A2780 [3]): 2.73 µM

CCOc1ccc([C@@H]2CC(=O)c3cc(OC)c(OC)c(OC)c32)cc1F
IC50 (SW480): 4.52 µM | IC50 (HCT-116 [9]): 0.58 µM | IC50 (HeLa [10]): 1.05 µM | IC50 (A2780 [6]): 3.69 µM | IC50 (CT26): 10.8 µM

COc1ccc(C2CC(=O)c3cc(OC)c(OC)c(OC)c32)cc1OC (stereo not drawn)
IC50 (HeLa [1]): 8.21 µM | IC50 (HCT-116 [2]): 13.3 µM | IC50 (A2780 [3]): 23.9 µM

CC[C@]1(O)C[C@H]2CN(CCc3c([nH]c4ccccc34)[C@@](C(=O)OC)(c3cc4c(cc3OC)N(C=O)[C@H]3[C@@](O)(C(=O)OC)[C@H](OC(C)=O)[C@]5(CC)C=CCN6CC[C@]43[C@@H]65)C2)C1
Activity [13]: Active

COc1ccc([C@@H]2C(=O)c3ccc(OC)cc3[C@H]2c2ccc(OCCN3CCC(C)CC3)cc2)cc1
IC50 (MDA-MB-231): 3.94 µM | IC50 (Estrogen receptor beta): 0.51 µM | IC50 (MCF7): 7.16 µM

COc1cc2c(c(OC)c1OC)C(c1ccc(OC(C)C)cc1)CC2=O (stereo not drawn)
IC50 (HeLa [1]): 6.87 µM | IC50 (HCT-116 [2]): 17.3 µM | IC50 (A2780 [3]): 4.98 µM

COc1cc2c(c(OC)c1OC)C(c1ccc(OC(C)(C)C)cc1)CC2=O (stereo not drawn)
IC50 (HeLa [1]): 9.15 µM | IC50 (HCT-116 [2]): 15.4 µM | IC50 (A2780 [3]): 12.6 µM

COc1ccc([C@H]2NC(=O)c3cc(OC)cc(OC)c32)cc1
IC50 (Tubulin): > 100 µM

COc1cc(OC)cc(C2CC(=O)c3cc(OC)c(OC)c(OC)c32)c1 (stereo not drawn)
IC50 (HeLa [1]): > 100 µM | IC50 (HCT-116 [2]): > 100 µM | IC50 (A2780 [3]): > 100 µM

COc1cc(C2CC(=O)c3cc(OC)c(OC)c(OC)c32)ccc1Cl (stereo not drawn)
IC50 (HeLa [1]): > 100 µM | IC50 (HCT-116 [2]): > 100 µM | IC50 (A2780 [3]): > 100 µM
